Assay results published in patent US20120088737A2, “NOVEL ACYL GUANIDINE DERIVATIVES” (AJINOMOTO CO., INC, priority 2009, published 2012).

Tests used:
Assay type in all cases: cell-based
human NHE3 [1] = biological target: T1, human NHE3 (Homo sapiens, UniProt P48764); assay: Measurements of NHE3 inhibitory activities (OK26 cells); conditions: OK26 cells (opossum kidney cells overexpressing human NHE3), measurement time 5 minutes at 37° C.; read-out: hNHE3 IC50
T1 construct: expressed in transfected cells; host or cells: OK26 cells (opossum kidney OK cells); OK26 ND sublines with opNHE1 reduced by 90% for A3
T1 sequence (P48764 26-834): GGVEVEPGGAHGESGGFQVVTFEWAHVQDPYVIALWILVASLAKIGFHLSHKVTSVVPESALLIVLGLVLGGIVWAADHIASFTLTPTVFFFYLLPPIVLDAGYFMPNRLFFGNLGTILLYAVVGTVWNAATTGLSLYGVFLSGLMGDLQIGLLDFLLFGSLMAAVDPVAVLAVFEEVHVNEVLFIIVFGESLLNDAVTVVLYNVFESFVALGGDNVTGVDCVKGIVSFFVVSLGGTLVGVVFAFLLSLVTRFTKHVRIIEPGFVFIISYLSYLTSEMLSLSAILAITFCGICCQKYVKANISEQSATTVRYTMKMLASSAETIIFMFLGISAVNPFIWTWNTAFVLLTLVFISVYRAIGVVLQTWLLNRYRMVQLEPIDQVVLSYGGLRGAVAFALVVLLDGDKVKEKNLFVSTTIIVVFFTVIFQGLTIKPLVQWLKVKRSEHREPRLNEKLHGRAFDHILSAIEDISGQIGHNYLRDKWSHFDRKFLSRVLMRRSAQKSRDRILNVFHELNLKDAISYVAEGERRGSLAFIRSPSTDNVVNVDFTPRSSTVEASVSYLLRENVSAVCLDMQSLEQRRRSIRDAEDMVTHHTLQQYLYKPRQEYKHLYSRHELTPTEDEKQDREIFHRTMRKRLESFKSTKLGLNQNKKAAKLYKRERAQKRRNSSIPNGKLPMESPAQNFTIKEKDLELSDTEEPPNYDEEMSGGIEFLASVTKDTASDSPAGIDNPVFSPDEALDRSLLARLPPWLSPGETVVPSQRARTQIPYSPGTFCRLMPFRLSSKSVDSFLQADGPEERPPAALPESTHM
Protocol: (§1) HLF cells (Human hepatoma cell line) were used as cells for the test. After 1×10^4 cells/well were seeded to a 96-well plate and cultured for 3 days, they were cultured overnight under a serum-free medium. Then, the cells were incubated in a stain solution of Tetramethylammonium (TMA) Buffer (130 mM TMA-C1, 5 mM KCl, 2 mM CaCl2, 1 mM MgSO2, 25 mM glucose, 20 mM HEPES; pH 7.4) containing 40 mM NH4Cl and 1 μg/mL pH-sensitive fluorescent indicator BCECF-AM at 37° C. for 40 minutes and then BCECF was introduced into the cells. After the cells were washed once with TMA Buffer and incubated in TMA+40 mM NH4Cl solution at 37° C. for 15 minutes, the solution was removed and 20 μL/well of TMA Buffer and 10 μL/well of each test compound solution prepared with TMA Buffer were added to each well. The measurements were carried out by adding 200 μL/well of Na Buffer (130 mM, NaCl, 5 mM KCl, 2 mM CaCl2, 1 mM MgSO2, 1 mM NaH2PO4, 25 mM glucose, 20 mM HEPES; pH 7.4) or TMA Buffer (for base measurement), immediately placing it on FlexStation (Molecular Device) and then, after 10 minutes, measuring, it the two wavelengths of 505 nm (excitation wavelength)/530 nm (emission wavelength) (measurement value) and 440 nm (excitation wavelength)/530 nm (emission wavelength) (isosbestic point value). A NHE activity was calculated by dividing a measurement value by an isosbestic point value and a NHE1 inhibitory activity was calculated by the following equation. NHE1 inhibitory activity (%)=100×(1−(Measurement value [addition of each compound]−Base [addition of TMA Buffer])/(Control [addition of Na Buffer]−Base [addition of TMA Buffer]))
Pharmacological Test Example 2: Measurements of NHE3 Inhibitory Activities.
OK26 cells (OK (opossum kidney) cells in which human NHE3 genes are overexpressed) were used as cells for the test. The measurements were carried out in the same manner as described in Pharmacological Test Example 1 except that the measurement time was 5 minutes (at 37° C.) to calculate NHE3 inhibitory activities.

human NHE3 [2] = biological target: T1, human NHE3; assay: Improved version of measurements of NHE3 inhibitory activities (OK26 ND cell lines); conditions: OK26 ND cell lines (opNHE1 expression reduced by 90%), measurement time 8 minutes at 26° C.; read-out: hNHE3 IC50
Protocol: Pharmacological Test Example 3: Improved Version of Measurements of NHE3 Inhibitory Activities
OK26 cells express endogeneous NHE1 (opNHE1). In order to evaluate NHE3 inhibitory activities more precisely, OK26 ND cell lines in which the expression level of opNHE1 is reduced by 90% were established. Measurements of NEE inhibitory activities were carried out by using the established cell lines in the same manner as described in Pharmacological Test Example 1 except that the measurement time was 8 minutes (at 26° C.) to calculate more precise NHE3 inhibitory activities.

NHE1 = biological target: T2, NHE1 (Homo sapiens, UniProt P19634); assay: Measurements of NHE1 inhibitory activities (HLF cells, BCECF pH recovery); conditions: HLF cells (human hepatoma cell line), measured after 10 minutes; read-out: hNHE1 IC50
T2 construct: HLF cells (Human hepatoma cell line) were used as cells for the test; endogenous in cells; host or cells: HLF cells (human hepatoma cell line)
T2 sequence (P19634 whole entry): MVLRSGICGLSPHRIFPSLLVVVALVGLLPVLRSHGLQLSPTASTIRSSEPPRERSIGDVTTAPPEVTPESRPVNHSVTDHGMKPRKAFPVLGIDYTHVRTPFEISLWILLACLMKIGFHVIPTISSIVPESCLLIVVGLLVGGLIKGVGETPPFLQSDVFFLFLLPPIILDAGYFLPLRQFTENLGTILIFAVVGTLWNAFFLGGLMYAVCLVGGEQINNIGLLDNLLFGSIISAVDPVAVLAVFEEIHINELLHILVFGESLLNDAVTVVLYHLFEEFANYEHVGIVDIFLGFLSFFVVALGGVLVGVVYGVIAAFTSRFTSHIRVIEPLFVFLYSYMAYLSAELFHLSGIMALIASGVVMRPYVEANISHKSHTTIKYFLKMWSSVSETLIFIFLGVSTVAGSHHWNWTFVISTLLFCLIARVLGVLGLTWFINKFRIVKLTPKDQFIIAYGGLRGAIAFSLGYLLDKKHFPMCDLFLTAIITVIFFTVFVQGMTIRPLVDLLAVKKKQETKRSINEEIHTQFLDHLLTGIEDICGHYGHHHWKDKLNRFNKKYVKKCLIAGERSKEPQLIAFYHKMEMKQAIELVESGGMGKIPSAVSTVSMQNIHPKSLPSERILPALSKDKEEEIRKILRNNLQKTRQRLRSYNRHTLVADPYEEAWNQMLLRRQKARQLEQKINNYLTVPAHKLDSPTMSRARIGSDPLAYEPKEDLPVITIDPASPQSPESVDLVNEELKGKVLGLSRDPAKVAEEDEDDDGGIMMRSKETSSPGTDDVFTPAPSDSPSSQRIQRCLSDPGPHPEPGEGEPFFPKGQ
Protocol: Pharmacological Test Example 1: Measurements of NHE1 Inhibitory Activities
as §1

Row | Compound | IC50 (human NHE3 [1]) [nM] | IC50 (human NHE3 [2]) [nM] | IC50 (NHE1) [nM]
1 | C/C(=C\c1ccc(-c2ccc(O)cc2C)cc1)C(=O)NC(=N)N [Example 86, N-[(E)-3-(4′-hydroxy-2′-methyl-biphenyl-4-yl)-2-methyl-acryloyl]-guanidine] | 230 | – | –
2 | C/C(=C\c1ccc(Oc2ccc(S(N)(=O)=O)cc2)cc1-c1cccc(O)c1)C(=O)NC(=N)N [Example 64, 4-[(E)-6-(3-guanidino-2-methyl-3-oxo-propenyl)-3′-hydroxy-biphenyl-3-yloxy]-benzenesulfonamide] | – | 150 | 1300
3 | C/C(=C\c1ccc(Oc2ccc(O)cc2)cc1-c1ccc(O)cc1)C(=O)NC(=N)N [Example 71, N-{(E)-3-[4′-hydroxy-5-(4-hydroxy-phenoxy)-biphenyl-2-yl]-2-methyl-acryloyl}-guanidine] | – | 130 | 1300
4 | C/C(=C\c1ccccc1-c1cc[nH]c1)C(=O)NC(=N)N [Example 84, N-{(E)-2-methyl-3-[2-(1H-pyrrole-3-yl)-phenyl]-acryloyl}-guanidine] | – | 180 | 2100
5 | C/C(=C\c1ccc(-c2ccc(O)cc2)cc1N1CCOCC1)C(=O)NC(=N)N [Example 94, N-[(E)-3-(4′-hydroxy-3-morpholine-4-yl-biphenyl-4-yl)-2-methyl-acryloyl]-guanidine] | – | 320 | 2100
6 | C/C(=C\c1ccc(-c2cc(C)c(O)c(C)c2)cc1-c1cc(C)c(O)c(C)c1)C(=O)NC(=N)N [Example 75, N-[(E)-3-(2,4-di(3,5-dimethyl-4-hydroxyphenyl)-phenyl)-2-methyl-acryloyl]-guanidine] | – | 100 | 1800
7 | C/C(=C\c1ccccc1-c1ccc(C(=N)N)c(F)c1)C(=O)NC(=N)N [Example 58, (E)-3-fluoro-2′-(3-guanidino-2-methyl-3-oxo-propenyl)-biphenyl-4-carboxamidine] | – | 9 | 200
8 | C/C(=C\c1ccccc1-c1ccc(O)cc1F)C(=O)NC(=N)N [Example 59, N-[(E)-3-(2′-fluoro-4′-hydroxy-biphenyl-2-yl)-2-methyl-acryloyl]-guanidine] | – | 280 | 3200
9 | C/C(=C\c1ccc(-c2cccc(O)c2)cc1-c1cccc(O)c1)C(=O)NC(=N)N [Example 77, N-[(E)-3-(2,4-di(3-hydroxyphenyl)-phenyl)-2-methyl-acryloyl]-guanidine] | – | 61 | 940
10 | C/C(=C\c1ccccc1-c1ccc(O)c(C)c1)C(=O)NC(=N)N [Example 61, N-[(E)-3-(4′-hydroxy-3′-methyl-biphenyl-2-yl)-2-methyl-acryloyl]-guanidine] | – | 400 | 4300
11 | C/C(=C\c1ccccc1-c1cccc(C(=O)NO)c1)C(=O)NC(=N)N [Example 55, (E)-2′-(3-guanidino-2-methyl-3-oxo-propenyl)-biphenyl-3-carboxylic acid hydroxyamide] | – | 440 | 2900
12 | C/C(=C\c1ccc(C)cc1-c1ccc(O)c(O)c1)C(=O)NC(=N)N [Example 69, N-[(E)-3-(3′,4′-dihydroxy-5-methyl-biphenyl-2-yl)-2-methyl-acryloyl]-guanidine] | – | 100 | 580
13 | C/C(=C\c1ccc(C)cc1-c1ccc(F)c(O)c1)C(=O)NC(=N)N [Example 63, N-[(E)-3-(4′-fluoro-3′-hydroxy-5-methyl-biphenyl-2-yl)-2-methyl-acryloyl]-guanidine] | – | 330 | 9900
14 | C/C(=C\c1ccccc1-c1ccc(C(=N)N)cc1C)C(=O)NC(=N)N [Example 57, (E)-2′-(3-guanidino-2-methyl-3-oxo-propenyl)-2-methyl-biphenyl-4-carboxamidine] | – | 100 | 1100
15 | C/C(=C\c1ccccc1-c1cscc1C)C(=O)NC(=N)N [Example 83, N-{(E)-2-methyl-3-[2-(4-methyl-thiophene-3-yl)-phenyl]-acryloyl}-guanidine] | – | 540 | 2200
16 | C/C(=C\c1cccc(C)c1-c1ccc(O)cc1)C(=O)NC(=N)N [Example 67, N-[(E)-3-(4′-hydroxy-6-methyl-biphenyl-2-yl)-2-methyl-acryloyl]-guanidine] | – | 120 | 2100
17 | COc1cc(-c2ccc(/C=C(\C)C(=O)NC(=N)N)c(-c3ccc(O)c(OC)c3)c2)ccc1O [Example 78, N-[(E)-3-(2,4-di(3-methoxy-4-hydroxyphenyl)-phenyl)-2-methyl-acryloyl]-guanidine] | – | 150 | 3300
18 | C/C(=C\c1ccccc1-c1ccc(O)cc1Cl)C(=O)NC(=N)N [Example 60, N-[(E)-3-(2′-chloro-4′-hydroxy-biphenyl-2-yl)-2-methyl-acryloyl]-guanidine] | – | 310 | 910
19 | C/C(=C\c1ccc(C(F)(F)F)cc1-c1ccc(O)cc1)C(=O)NC(=N)N [Example 81, N-[(E)-3-(4′-hydroxy-5-trifluoromethyl-biphenyl-2-yl)-2-methyl-acryloyl]-guanidine] | – | 630 | 5200
20 | C/C(=C\c1ccccc1-c1ccc(C(=N)N)cc1)C(=O)NC(=N)N [Example 56, (E)-2′-(3-guanidino-2-methyl-3-oxo-propenyl)-biphenyl-4-carboxamidine] | – | 400 | 3400
21 | C/C(=C\c1ccc(-c2ccc(F)c(O)c2)cc1-c1ccc(F)c(O)c1)C(=O)NC(=N)N [Example 76, N-[(E)-3-(2,4-di(3-hydroxy-4-fluorophenyl)-phenyl)-2-methyl-acryloyl]-guanidine] | – | 400 | 1100
22 | C/C(=C\c1ccc(C)cc1-c1ccc(C(=N)N)c(F)c1)C(=O)NC(=N)N [Example 79, (E)-3-fluoro-2′-(3-guanidino-2-methyl-3-oxo-propenyl)-5′-methyl-biphenyl-4-carboxamidine] | – | 700 | 5200
23 | C/C(=C\c1ccccc1-c1ccc(O)cc1O)C(=O)NC(=N)N [Example 53, N-[(E)-3-(2′,4′-hydroxy-2-yl)-2-methyl-acryloyl]-guanidine] | – | 740 | 2900
24 | COc1ccc(-c2cc(C)ccc2/C=C(\C)C(=O)NC(=N)N)cc1O [Example 74, N-[(E)-3-(3′-hydroxy-4′-methoxy-5-methyl-biphenyl-2-yl)-2-methyl-acryloyl]-guanidine] | – | 200 | 1400
25 | C/C(=C\c1c(F)cccc1-c1ccc(O)cc1)C(=O)NC(=N)N [Example 82, N-[(E)-3-(3-fluoro-4′-hydroxy-biphenyl-2-yl)-2-methyl-acryloyl]-guanidine] | – | 350 | 6600
